Experimental data from patent EP1090020B1, “2-(PURIN-9-YL)-TETRAHYDROFURAN-3,4-DIOL DERIVATIVES” (GLAXO GROUP LIMITED, priority 1998, dated 1999).

What was measured:
Type in all cases: cell-based
[1] = molecular target: human adenosine receptor (adenosine 2a) (Homo sapiens, UniProt P29274); test: Agonist activity against adenosine 2a receptor subtype (CHO cells, cAMP response element/SPAP reporter); settings: transfected CHO cells; effect on basal levels of cAMP reflected by SPAP; ratio to NECA
Experimental: (§1) Compounds of the invention were tested for in vitro and in vivo biological activity in accordance with the following screens: • (1) Agonist activity against adenosine 2a, adenosine 1 and adenosine 3 receptor subtypes. Agonist selectivity of compounds against other human adenosine receptors was determined using Chinese hamster ovary (CHO) cells transfected with the gene for the relevant human adenosine receptor following a method based on that of Castanon and Spevak, 1994 . The CHO cells were also transfected with cyclic AMP response elements promoting the gene for secreted placental alkaline phosphatase (SPAP) (Wood, 1995). The effect of test compounds was determined by their effects on basal levels of CAMP (A2a) or on forskolin-enhanced cAMP (A1 and A3) as reflected by changes in levels of SPAP. EC50 values for compounds were then determined as a ratio to that of the non-selective agonist N-ethyl carboxamide adenosine (NECA).

[2] = molecular target: T1, human adenosine receptor (adenosine 3) (Homo sapiens, UniProt P0DMS8); test: Agonist activity against adenosine 3 receptor subtype (CHO cells, cAMP response element/SPAP reporter); settings: transfected CHO cells; effect on forskolin-enhanced cAMP reflected by SPAP; ratio to NECA
T1 sequence (P0DMS8 1-318): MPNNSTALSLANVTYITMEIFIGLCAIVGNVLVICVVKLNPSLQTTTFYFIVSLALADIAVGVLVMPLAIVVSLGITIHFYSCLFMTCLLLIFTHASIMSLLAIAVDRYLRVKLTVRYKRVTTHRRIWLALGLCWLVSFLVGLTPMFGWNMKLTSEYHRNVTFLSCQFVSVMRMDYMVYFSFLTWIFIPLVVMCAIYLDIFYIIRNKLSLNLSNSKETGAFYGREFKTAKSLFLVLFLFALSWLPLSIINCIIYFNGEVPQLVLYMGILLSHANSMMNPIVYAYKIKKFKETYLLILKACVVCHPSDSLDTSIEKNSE
Experimental: as §1

[3] = molecular target: T2, human adenosine receptor (adenosine 1) (Homo sapiens, UniProt P30542); test: Agonist activity against adenosine 1 receptor subtype (CHO cells, cAMP response element/SPAP reporter); settings: transfected CHO cells; effect on forskolin-enhanced cAMP reflected by SPAP; ratio to NECA
T2 sequence (P30542 1-326): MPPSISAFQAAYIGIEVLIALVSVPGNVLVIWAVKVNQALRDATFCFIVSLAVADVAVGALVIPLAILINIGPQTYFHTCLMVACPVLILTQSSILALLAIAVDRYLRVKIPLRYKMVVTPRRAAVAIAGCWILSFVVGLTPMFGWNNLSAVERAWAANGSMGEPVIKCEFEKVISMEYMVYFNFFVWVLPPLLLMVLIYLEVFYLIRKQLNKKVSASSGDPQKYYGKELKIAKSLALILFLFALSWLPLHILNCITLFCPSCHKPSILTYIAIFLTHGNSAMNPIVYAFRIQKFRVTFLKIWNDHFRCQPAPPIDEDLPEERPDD
Experimental: as §1

Chain of human adenosine receptor (adenosine 2a) (P29274 whole entry): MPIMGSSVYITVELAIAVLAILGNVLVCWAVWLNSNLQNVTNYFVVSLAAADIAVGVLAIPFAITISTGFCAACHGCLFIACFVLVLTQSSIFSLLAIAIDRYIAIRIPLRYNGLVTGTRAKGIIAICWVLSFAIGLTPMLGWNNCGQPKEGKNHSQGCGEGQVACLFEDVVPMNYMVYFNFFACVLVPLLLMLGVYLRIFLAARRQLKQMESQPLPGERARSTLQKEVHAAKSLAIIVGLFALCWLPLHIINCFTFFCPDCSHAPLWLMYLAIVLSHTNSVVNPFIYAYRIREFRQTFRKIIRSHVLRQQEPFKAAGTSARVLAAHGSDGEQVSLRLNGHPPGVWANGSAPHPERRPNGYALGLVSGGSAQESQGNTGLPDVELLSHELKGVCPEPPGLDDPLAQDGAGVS

Row | SMILES | A2a; EC50 values as a ratio of that of NECA [1] | A3; EC50 values as a ratio of that of NECA [2] | A1; EC50 values as a ratio of that of NECA [3]
1 | N[C@H]1CC[C@H](Nc2nc(NCC(c3ccccc3)c3ccccc3)c3ncn([C@@H]4O[C@H](c5nnc[nH]5)[C@@H](O)[C@H]4O)c3n2)CC1.O=CO [Example 1, (2R,3R,4S,5R)-2-[2-(trans-4-Amino-cyclohexylamino)-6-(2,2-diphenyl-ethylamino)-purin-9-yl]-5-(4H-[1,2,4]triazol-3-yl)-tetrahydro-furan-3,4-diol formate] | 11.37 | > 353 | 1098
2 | Cn1cnc(CCNc2nc(NCC(c3ccccc3)c3ccccc3)c3ncn([C@@H]4O[C@H](c5nnc[nH]5)[C@@H](O)[C@H]4O)c3n2)c1.O=CO [Example 2, (2R,3R,4S,5R)-2-{6-(2,2-Diphenyl-ethylamino)-2-[2-(1-methyl-1H-imidazol-4-yl)-ethylamino]-purin-9-yl}-5-(4H-[1,2,4]triazol-3-yl)-tetrahydro-furan-3,4-diol formate] | 1.08 | > 430 | 1003.4
3 | O=CO.O[C@@H]1[C@H](O)[C@@H](c2nnc[nH]2)O[C@H]1n1cnc2c(NCC(c3ccccc3)c3ccccc3)nc(N[C@@H]3CCNC3)nc21 [Example 3, (2R,3R,4S,5R)-2-[6-(2,2-Diphenyl-ethylamino)-2-(pyrrolidin-3R-ylamino)-purin-9-yl]-5-(4H-[1,2,4]triazol-3-yl)-tetrahydro-furan-3,4-diol formate] | 10.49 | > 306 | 586.92
4 | CC(C)[C@@H](CO)Nc1nc(NCC(c2ccccc2)c2ccccc2)c2ncn([C@@H]3O[C@H](c4nnc[nH]4)[C@@H](O)[C@H]3O)c2n1.O=CO [Example 4, (2R,3R,4S,5R)-2-[6-(2,2-Diphenyl-ethylamino)-2-(1S-hydroxymethyl-2-methyl-propylamino)-purin-9-yl]-5-(4H-[1,2,4]triazol-3-yl)-tetrahydro-furan-3,4-diol formate] | 3.79 | > 306 | 670.92
5 | O=CO.O[C@@H]1[C@H](O)[C@@H](c2nnc[nH]2)O[C@H]1n1cnc2c(NCC(c3ccccc3)c3ccccc3)nc(NCCc3ccccn3)nc21 [Example 5, (2R,3R,4S,5R)-2-[6-(2,2-Diphenyl-ethylamino)-2-(2-pyridin-2-yl-ethylamino)-purin-9-yl]-5-(4H-[1,2,4]triazol-3-yl)-tetrahydro-furan-3,4-diol formate] | 19.3 | > 397 | 3329
6 | O=CO.O[C@@H]1[C@H](O)[C@@H](c2nnc[nH]2)O[C@H]1n1cnc2c(NCC(c3ccccc3)c3ccccc3)nc(NC3CCCC3)nc21 [Example 6, (2R,3R,4S,5R)-2-[2-Cyclopentylamino-6-(2,2-diphenyl-ethylamino)-purin-9-yl]-5-(4H-[1,2,4]triazol-3-yl)-tetrahydro-furan-3,4-diol formate] | 16.96 | > 305 | 1627
7 | N=C(N)NCCNc1nc(NCC(c2ccccc2)c2ccccc2)c2ncn([C@@H]3O[C@H](c4nnc[nH]4)[C@@H](O)[C@H]3O)c2n1.O=CO [Example 7, N-{2-[9-[3R,4S-Dihydroxy-5R-(4H-[1,2,4]triazol-3-yl)-tetrahydro-furan-2R-yl]-6-(2,2-diphenyl-ethylamino)-9H-purin-2-ylamino]-ethyl}-guanidine formate] | 19.01 | > 368 | 2577
8 | O=CO.OC[C@H](Cc1ccccc1)Nc1nc(NCC(c2ccccc2)c2ccccc2)c2ncn([C@@H]3O[C@H](c4nnc[nH]4)[C@@H](O)[C@H]3O)c2n1 [Example 8, (2R,3R,4S,5R)-2-[6-(2,2-Diphenyl-ethylamino)-2-(1S-hydroxymethyl-2-phenyl-ethylamino)-purin-9-yl]-5-(4H-[1,2,4]triazol-3-yl)-tetrahydro-furan-3,4-diol formate] | 26.74 | > 326 | 280.97
9 | O=CO.O[C@@H]1[C@H](O)[C@@H](c2nnc[nH]2)O[C@H]1n1cnc2c(NCC(c3ccccc3)c3ccccc3)nc(NCCN3CCCCC3)nc21 [Example 9, (2R,3R,4S,5R)-2-[6-(2,2-Diphenyl-ethylamino)-2-(2-piperidin-1-yl-ethylamino)-purin-9-yl]-5-(4H-[1,2,4]triazol-3-yl)-tetrahydro-furan-3,4-diol formate] | 8.13 | > 472 | 969.8
